Like-named read-outs stand apart in the source and are kept apart here.
Tests used:
[1] = test system: HBV (HepG2.117 cell line, inducibly HBV producing); test: Anti-HBV activity: intracellular HBV DNA by real-time PCR in HepG2.117 cells after 3 days of treatment; format: cell-based, hepatitis B virus
Experimental: The anti HBV activity was measured using the HepG2.117 cell line, a stable, inducibly HBV producing cell line, which replicates HBV in the absence of doxycycline (Tet-off system). The HepG2 cell line is available from ATCCR under number HB-8065. Transfection of the HepG2 cell line can be as described in Sun and Nassal 2006 Journal of Hepatology 45 (2006) 636-645 “Stable HepG2- and Huh7-based human hepatoma cell lines for efficient regulated expression of infectious hepatitis B virus”.
For the antiviral assay, HBV replication was induced, followed by a treatment with serially diluted compound in 96-well plates. After 3 days of treatment, the antiviral activity was determined by quantification of intracellular HBV DNA using real-time PCR and an HBV specific primer set and probe.

in vitro = format: cell-based; conditions: human, HepG2 or HepG2.117 cells, ATPlite, mean value
Experimental: Cytotoxicity of the compounds was tested using HepG2 or HepG2.117 cells, incubated for 3 or 4 days in the presence of compounds. The viability of the cells was assessed using the PERKIN ELMER ATPlite Luminescence Assay System.”

[2] = Hepatitis B virus, HepG2.117, 72 h, HepG2.117 cells, 3 days of treatment, intracellular HBV DNA by real-time PCR; mean value; read-out: EC50 (μM, mean value)
[3] = 3-days incubation (unmarked values)
[4] = Hepatitis B virus, HepG2.117, 72 h, HepG2.117 cells, intracellular HBV DNA by real-time PCR, 3 days of treatment, mean value; read-out: EC50 (μM, mean value)
[5] = 3-days incubation (not marked with *)

| SMILES | EC50 [1, 2] [µM] | CC50 at 3 days (in vitro; [3]) [µM] | EC50 ([1]; HepG2.117 cells, 3 days of treatment, intracellular HBV DNA by real-time PCR; mean value; read-out: EC50 (μM, mean value)) [µM] | EC50 [1, 4] [µM] | CC50 at 3 days (in vitro; [5]) [µM] |
| --- | --- | --- | --- | --- | --- |
| CNC(=O)c1ccc(-n2c(N[C@H](CCO)C3CC3)nc3c(c2=O)C[C@@H](C)N(C(=O)c2ccc(Cl)c(Cl)c2)C3)cc1 (single isomer, unassigned) [Compound C283, 4-[(6R)-2-{[(1*R)-1-cyclopropyl-3-hydroxypropyl]amino}-7-(3,4-dichlorobenzoyl)-6-methyl-4-oxo-5,6,7,8-tetrahydropyrido[3,4-d]pyrimidin-3(4H)-yl]-N-methylbenzamide] | 5.52 | > 50 | – | – | – |
| CNC(=O)c1ccc(-n2c(N[C@H](C)c3cccnc3OC)nc3c(c2=O)C[C@@H](C)N(C(=O)c2ccc(Cl)c(Cl)c2)C3)cc1 (single isomer, unassigned) [Compound C285, 4-[(6R)-7-(3,4-dichlorobenzoyl)-2-{[(1*R)-1-(2-methoxypyridin-3-yl)ethyl]amino}-6-methyl-4-oxo-5,6,7,8-tetrahydropyrido[3,4-d]pyrimidin-3(4H)-yl]-N-methylbenzamide] | 0.37 | 27.6 | – | – | – |
| CNC(=O)c1ccc(-n2c(N3CC[C@H]3C)nc3c(c2=O)C[C@@H](C)N(C(=O)c2ccc(Cl)c(Cl)c2)C3)cc1 (single isomer, unassigned) [Compound C311, 4-[(6R)-7-(3,4-dichlorobenzoyl)-6-methyl-2-[(2*R)-2-methylazetidin-1-yl]-4-oxo-5,6,7,8-tetrahydropyrido[3,4-d]pyrimidin-3(4H)-yl]-N-methylbenzamide] | 0.09 | > 50 | – | – | – |
| CNC(=O)c1ccc(-n2c(N3CC[C@@H]3C)nc3c(c2=O)C[C@@H](C)N(C(=O)c2ccc(Cl)c(Cl)c2)C3)cc1 (single isomer, unassigned) [Compound C312, 4-[(6R)-7-(3,4-dichlorobenzoyl)-6-methyl-2-[(2*S)-2-methylazetidin-1-yl]-4-oxo-5,6,7,8-tetrahydropyrido[3,4-d]pyrimidin-3(4H)-yl]-N-methylbenzamide] | 0.26 | > 50 | – | – | – |
| CNC(=O)c1ccc(-n2c(NC(C)C)nc3c(c2=O)C[C@@H](C)N(C(=O)c2ccc(Cl)c(Cl)c2)C3)c(OC)c1 (single isomer, unassigned) [Compound C314a] | – | > 50 | 0.1 | – | – |
| CNC(=O)c1ccc(-n2c(N[C@@H]3CCCC3(C)C)nc3c(c2=O)C[C@@H](C)N(C(=O)c2ccc(Cl)c(Cl)c2)C3)cc1 (single isomer, unassigned) [Compound C318, 4-[(6R)-7-(3,4-dichlorobenzoyl)-2-{[(1*R)-2,2-dimethylcyclopentyl]amino}-6-methyl-4-oxo-5,6,7,8-tetrahydropyrido[3,4-d]pyrimidin-3(4H)-yl]-N-methylbenzamide] | 0.68 | 23.2 | – | – | – |
| CNC(=O)c1ccc(-n2c(N[C@H]3CCCC3(C)C)nc3c(c2=O)C[C@@H](C)N(C(=O)c2ccc(Cl)c(Cl)c2)C3)cc1 (single isomer, unassigned) [Compound C319, 4-[(6R)-7-(3,4-dichlorobenzoyl)-2-{[(1*S)-2,2-dimethylcyclopentyl]amino}-6-methyl-4-oxo-5,6,7,8-tetrahydropyrido[3,4-d]pyrimidin-3(4H)-yl]-N-methylbenzamide] | 0.21 | 23.5 | – | – | – |
| CNC(=O)c1ccc(-n2c(N[C@H](C)c3ccccn3)nc3c(c2=O)C[C@@H](C)N(C(=O)c2ccc(Cl)c(Cl)c2)C3)cc1 (single isomer, unassigned) [Compound C320, 4-[(6R)-7-(3,4-dichlorobenzoyl)-6-methyl-4-oxo-2-{[(1*R)-1-(pyridin-2-yl)ethyl]amino}-5,6,7,8-tetrahydropyrido[3,4-d]pyrimidin-3(4H)-yl]-N-methylbenzamide] | 0.27 | > 50 | – | – | – |
| CNC(=O)c1ccc(-n2c(N[C@@H](C)c3ccccn3)nc3c(c2=O)C[C@@H](C)N(C(=O)c2ccc(Cl)c(Cl)c2)C3)cc1 (single isomer, unassigned) [Compound C321, 4-[(6R)-7-(3,4-dichlorobenzoyl)-6-methyl-4-oxo-2-{[(1*S)-1-(pyridin-2-yl)ethyl]amino}-5,6,7,8-tetrahydropyrido[3,4-d]pyrimidin-3(4H)-yl]-N-methylbenzamide] | 0.94 | > 50 | – | – | – |
| CNC(=O)c1ccc(-n2c(N[C@@H](c3ccccc3)C3CC3)nc3c(c2=O)C[C@@H](C)N(C(=O)c2ccc(Cl)c(Cl)c2)C3)cc1 (single isomer, unassigned) [Compound C342, 4-[(6R)-2-{[(*R)-cycopropyl(phenyl)methyl]amino}-7-(3,4-dichlorobenzoyl)-6-methyl-4-oxo-5,6,7,8-tetrahydropyrido[3,4-d]pyrimidin-3(4H)-yl]-N-methylbenzamide] | 0.37 | 16 | – | – | – |
| CNC(=O)c1ccc(-n2c(N[C@H](c3ccccc3)C3CC3)nc3c(c2=O)C[C@@H](C)N(C(=O)c2ccc(Cl)c(Cl)c2)C3)cc1 (single isomer, unassigned) [Compound C343, 4-[(6R)-2-{[(*S)-cycopropyl(phenyl)methyl]amino}-7-(3,4-dichlorobenzoyl)-6-methyl-4-oxo-5,6,7,8-tetrahydropyrido[3,4-d]pyrimidin-3(4H)-yl]-N-methylbenzamide] | 0.19 | 13.7 | – | – | – |
| CNC(=O)c1ccc(-n2c(N[C@@H]3CCC34CCC4)nc3c(c2=O)C[C@@H](C)N(C(=O)c2ccc(Cl)c(Cl)c2)C3)cc1 (single isomer, unassigned) [Compound C346a] | – | – | – | 0.94 | 27.6 |
| CNC(=O)c1ccc(-n2c(N[C@H]3CCC34CCC4)nc3c(c2=O)C[C@@H](C)N(C(=O)c2ccc(Cl)c(Cl)c2)C3)cc1 (single isomer, unassigned) [Compound C346b] | – | – | – | 0.22 | > 50 |
| CNC(=O)c1ccc(-n2c(N[C@H](C)c3ccc(OC)cc3)nc3c(c2=O)C[C@@H](C)N(C(=O)c2ccc(Cl)c(Cl)c2)C3)cc1 (single isomer, unassigned) [Compound C347a] | – | – | – | 0.1 | 35.1 |
| CNC(=O)c1ccc(-n2c(N[C@@H](C)c3ccc(OC)cc3)nc3c(c2=O)C[C@@H](C)N(C(=O)c2ccc(Cl)c(Cl)c2)C3)cc1 (single isomer, unassigned) [Compound C347b] | – | – | – | 0.27 | > 50 |
| CNC(=O)c1ccc(-n2c(N3CC[C@@H]3c3ccccc3)nc3c(c2=O)C[C@@H](C)N(C(=O)c2ccc(Cl)c(Cl)c2)C3)cc1 (single isomer, unassigned) [Compound C348, 4-[(6R)-7-(3,4-dichlorobenzoyl)-6-methyl-4-oxo-2-[(2*R)-2-phenylazetidin-1-yl]-5,6,7,8-tetrahydropyrido[3,4-d]pyrimidin-3(4H)-yl]-N-methylbenzamide] | 0.2 | 31.2 | – | – | – |
| CNC(=O)c1ccc(-n2c(N3CC[C@H]3c3ccccc3)nc3c(c2=O)C[C@@H](C)N(C(=O)c2ccc(Cl)c(Cl)c2)C3)cc1 (single isomer, unassigned) [Compound C349, 4-[(6R)-7-(3,4-dichlorobenzoyl)-6-methyl-4-oxo-2-[(2*S)-2-phenylazetidin-1-yl]-5,6,7,8-tetrahydropyrido[3,4-d]pyrimidin-3(4H)-yl]-N-methylbenzamide] | 0.32 | 31.7 | – | – | – |

Reference: patent publication US20230091047A1 (priority 2019, published 2023)
